Measurements as given in PMC6130489, “Caffeic acid methyl and ethyl esters exert potential antidiabetic effects on glucose and lipid metabolism in cultured murine insulin-sensitive cells through mechanisms implicating activation of AMPK” (Pharmaceutical Biology, 2017).

Key:
L6 GLUT4myc myotubes = assay: 3H-Deoxyglucose uptake assay; format: cell-based, rat; conditions: insulin 100 nM, 15 min
Description: Measurement of glucose uptake was performed as previously described (Eid et al. [2010]) using [^3H]-2-deoxyglucose (TRK-383, Amersham Biosciences, Buckinghamshire, UK). Nonspecific uptake was measured in the presence of cytochalasin B (10 μM) and was subtracted from all values.
(§1) Figure 1. (A) CAME and CAEE increase ^3H-deoxyglucose uptake in L6 GLUT4myc myotubes. Cells were treated with 50 μM of either CAME, CAEE, or with vehicle (0.1% DMSO) for 18 h. 100 nM insulin served as the positive control and was applied for the last 15 min of the treatment in vehicle-treated cells. Glucose uptake was performed as described in Materials and Methods section. (B) CAME and CAEE stimulate GLUT4 translocation in L6 GLUT4myc myotubes. Cells were treated as previously described, cell surface GLUT4myc was detected by an enzyme-linked colorimetric assay. By the end of the treatment, L6- GLUT4myc cells were labeled with anti-c-myc antibody as described in Materials and Methods section. Results represent the means ± SEM of three independent experiments, and 3-4 cells were analyzed for each condition per experiment. *Indicates a significant (p ≤ 0.05) difference, **(p < 0.01) from the vehicle control group as assessed by ANOVA. […] L6 myotubes treated with CAME or CAEE (50 μM each), DMSO (0.1%) for 18 h. Insulin (100 nM) and AICAR (2 mM) both applied for 30 min and served as positive controls. Immunoblots were probed with anti phospho-AMPK (Thr 172), anti-GLUT4, anti-GLUT1 and anti-phospho-Akt (Ser 473) antibodies as described in Materials and Methods section. Anti-β-actin antibody was used as a loading control. Representative blots are shown in panel C. Data are expressed as (D) phospho-AMPK/β-actin, (E) GLUT4/β-actin and (F) GLUT1/β-actin and are given as mean ± SEM from 3 experiments. *p < 0.05 indicates a significant difference, **(p < 0.01) from the vehicle control group.

G6Pase = molecular target: T1, G6Pase (Rattus norvegicus, UniProt P43428); assay: Enzymatic activity of G6Pase in H4IIE cells; format: cell-based; conditions: insulin 100 nM, same treatment period, relative to DMSO
T1 sequence (P43428 1-357): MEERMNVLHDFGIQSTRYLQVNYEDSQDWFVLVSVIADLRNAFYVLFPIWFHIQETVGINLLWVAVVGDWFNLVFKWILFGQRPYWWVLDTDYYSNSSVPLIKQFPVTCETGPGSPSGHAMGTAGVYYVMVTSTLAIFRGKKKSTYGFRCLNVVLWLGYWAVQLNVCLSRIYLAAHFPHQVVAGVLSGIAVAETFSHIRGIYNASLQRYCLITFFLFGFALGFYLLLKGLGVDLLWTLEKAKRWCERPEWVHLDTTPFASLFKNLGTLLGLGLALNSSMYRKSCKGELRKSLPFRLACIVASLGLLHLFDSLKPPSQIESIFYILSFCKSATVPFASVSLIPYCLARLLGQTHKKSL
Description: At 90% confluence, H4-IIE cells were treated with 12.5, 25, 50 and 100 μM of either CAME or CAEE in serum free medium. Vehicle (0.1% DMSO)-treated and 100 nM insulin-treated cells served as the negative and positive control respectively. The activity of G6Pase was assessed by measuring the rate of glucose production in the presence of a non-limiting amount of glucose-6-phosphate (G6P) as described elsewhere (Nachar et al. [2013]). Total glucose production was measured using a commercial glucose assay kit (AutoKit Glucose; Wako Diagnostics, Richmond, VA). Protein content was measured using bicinchoninic acid (BCA) assay (Simpson [2008]) and G6Pase activity was expressed in relation to protein content.
Figure 2. CAME and CAEE inhibit G6Pase by mechanisms involving activation of AMPK. (A) H4IIE hepatocytes were treated for 16 h with several concentrations (12.5, 25, 50 and100 μM) of either CAME or CAEE and G6Pase activity was determined colorimetrically using a commercial glucose assay kit as described under Materials and Methods. Data are expressed relative to vehicle control (0.1% DMSO, 0% inhibition). Insulin (100 nM) applied for similar treatment period served as the positive control. (B and C) Cells were treated with the optimal nontoxic concentration of either CAME, CAEE (50 μM each), or DMSO (0.1%) for 18 h, insulin (100 nM), AICAR (1 mM) applied for 30 min served as the positive controls. (B) The upper blot was probed with anti-phospho-AMPK antibody (Thr 172) and the lower blot was probed with anti-pan AMPK. (C) Blots were probed with antibodies against phospho-Akt (Ser 473) or pan-Akt. Immunoblots are representative of three independent experiments with similar results. (D) Data are expressed as phospho-AMPK/pan-AMPK and are given as mean ± SEM from 3 experiments. *p < 0.05 indicates a significant difference, **(p < 0.01), ***(p < 0.001) from the vehicle control group.

GLUT4myc = assay: Cell surface GLUT4myc (GLUT4 translocation), OPD assay; format: cell-based, rat; conditions: insulin 100 nM, 15 min; L6-GLUT4myc
Description: L6-GLUT4myc myotubes grown in 24-well plates were serum-starved for 4 h and were incubated with either CAME or CAEE (50 μM) for 18 h or insulin (100 nM) for 15 min. Cell-surface GLUT4myc levels were measured by an antibody-coupled colorimetric assay (Niu et al. [2003]) using O-phenylenediamine dihydrochloride (OPD) reagent (1 mL/well) (Sigma-Aldrich, St. Louis, MO), an anti-c-myc antibody (1:200 dilution; Santa Cruz Biotechnology, Santa Cruz, CA) and horseradish peroxidase (HRP)-conjugated goat anti-rabbit IgG at 4 °C (1:1000 dilution; Cell Signaling Technologies, Danvers, MA).
as §1, with “Anti-β-actin antibody was used as a loading control. Representative blots are shown in panel C.” left out

AMPK = assay: Western immunoblot phospho-AMPK in L6 myotubes; format: cell-based, rat; conditions: AICAR 30 min (2 mM per Figure 1 legend, 1 mM per methods)
Description: L6 cells myotubes, H4IIE cells and 3T3-L1 adipocytes were treated with either CAME, CAEE (50 μM each) or vehicle (DMSO) for 18 h. Insulin (100 nM) or aminoimidazole carboxamide ribonucleotide (AICAR; 1 mM) were added to some vehicle-treated wells 30 min prior to the end of the treatment and served as the positives controls. Protein content was assayed by the bicinchoninic acid method (Thermo Scientific Pierce Protein Research, Rockford, IL) standardized to bovine serum albumin. Western immunoblotting was performed as described elsewhere (Eid et al. [2010]). Membranes were incubated overnight with phospho-AMPK, phospho-Akt, GLUT4, GLUT1 and β-actin antibodies (1:1000 dilution, Cell Signalling Technology, Danvers, MA), or with PPAR-γ, SREBP-1 (1:200, Santa Cruze Biotechnology, Santa Cruz, CA), followed by incubation with HRP-coupled secondary antibody (1:10,000) for 1 h. Immunoreactive bands were visualized by enhanced chemiluminescence and quantified by the Scion Image program (Scion Corporation, Frederick, MD). Experiments were repeated on 3 different passages of cells, each passage containing all conditions in parallel.
Figure 1. (A) CAME and CAEE increase ^3H-deoxyglucose uptake in L6 GLUT4myc myotubes. Cells were treated with 50 μM of either CAME, CAEE, or with vehicle (0.1% DMSO) for 18 h. 100 nM insulin served as the positive control and was applied for the last 15 min of the treatment in vehicle-treated cells. Glucose uptake was performed as described in Materials and Methods section. […] Cells were treated as previously described, cell surface GLUT4myc was detected by an enzyme-linked colorimetric assay. […] Results represent the means ± SEM of three independent experiments, and 3-4 cells were analyzed for each condition per experiment. *Indicates a significant (p ≤ 0.05) difference, **(p < 0.01) from the vehicle control group as assessed by ANOVA. […] Data are expressed as (D) phospho-AMPK/β-actin, (E) GLUT4/β-actin and (F) GLUT1/β-actin and are given as mean ± SEM from 3 experiments. *p < 0.05 indicates a significant difference, **(p < 0.01) from the vehicle control group.

Row | Compound | glucose uptake, percent of DMSO control (L6 GLUT4myc myotubes) | 2-deoxyglucose uptake rate (L6 GLUT4myc myotubes; basal (DMSO) 10.1 ± 0.5) | inhibition of G6Pase activity (G6Pase) | GLUT4 translocation, fold relative to DMSO (GLUT4myc) | AMPK phosphorylation, fold increase over DMSO (AMPK)
1 | insulin: Insulin from bovine pancreas, positive control (100 nM) | 175 ± 13% | 17.7 ± 1.2 pmol/min/mg protein | 70.7 ± 2.3% | 1.73 ± 0.18 fold | –
2 | NC(=O)c1ncn([C@@H]2O[C@H](CO)[C@@H](O)[C@H]2O)c1N [AICAR, aminoimidazole carboxamide ribonucleotide, reference compound] | – | – | – | – | 8.5 fold
